{"source": "patent US5631246A", "about": "“Use of PAF” (The Canadian Red Cross Society, priority 1993, dated 1997)", "tested_on": "endothelial cells (ECs)", "assay": "vWf release from ECs exposed directly to PAF or thrombin", "method": "Synthetic PAF (1-O-alkyl-2-acetyl-sn-glyceryl-3-phosphorylcholine; Sigma #P-9525) prepared from bovine heart lecithin (Demopoulos et al. (1979) J. Biol. Chem. 254: 9355-358) was 99% pure by TLC analysis, HPLC analysis indicated this product consisted of 70% C16 and 13% C18 forms of PAF (Mita et al., (1989) Anal. Biochem. 180:131-135). After removal of chloroform, PAF was resuspended in DMEM/F12 culture medium containing 1% Nutridoma-HU (final protein concentration of 40 μM stock solution). After sonication for 3×1 minute periods, the PAF solution was diluted and used immediately.\nMedia with or without thrombin (@5 units/mL) served as positive and negative controls respectively. ECs were incubated for 1, 10, 20 or 30 minutes and 1, 2, 4, 6 and 24 hours in the PAF and thrombin time course studies. The EC conditioned media were recovered, centrifuged to remove any cell debris, and then frozen at -80° C. for a maximum period of 4 weeks prior to analyses. […] Where appropriate ECs were preincubated with BTP-dioxolane which was not cytotoxic to the cells as determined by the dye exclusion test.\nEndothelial cells (ECs) were harvested from human umbilical cord vein as described by Jaffe et al. ((1973) Culture of Human Endothelial Cells Derived from Umbilical Veins: Identification by Morphologic and Immunologic Criteria, J. Clin. Invest. 52:2745-2756) and modified by Hashemi et al. (1990, supra). Endothelial cells were subcultured in 0.2% (w/v) gelatin-coated, 12-well Linbro™ polystyrene, tissue culture plates (Flow Laboratories, Mississauga, Ontario), then plated at a density of 1-2×10^4 /well and grown to confluence.\nThe standard consisted of a pool of plasma from 20 normal individuals previously determined to contain 1 unit of vWf per mL by the procedure of Zimmerman et al. (1977, J. Clin. Invest. 59:984-989). […] For some experiments, the maximum vWf that could be released was determined. Following incubation, the EC conditioned media were recovered and fresh media containing 0.05% (v/v) Tween 20 and 10 μM each of the protease inhibitors D-phenylalanyl-phenylalanyl-arginyl-chloromethyl ketone, D-phenylalanyl-propyl-arginyl-chloromethyl ketone and 1,5-Dansyl-glutamyl-glycyl-arginyl-chloromethyl ketone were added to the EC monolayers of each corresponding well. The cells were freeze-thawed three times and, to assure complete breakdown of the cell membranes as well as the Weibel-Palade bodies, disrupted in a glass homogenizer using a motor-driven teflon pestle. After centrifugation, total vWf concentration was determined in the supernatants.\nIn order to examine the responsiveness of ECs to direct PAF exposure, we incubated the monolayers of ECs with 0-300 pico molar (pM) PAF for a period of 4 hours at 37° C. and determined the amount of vWf released into the EC media. […] To determine the time course of PAF effects on vWf release, 300 pM PAF was incubated with monolayers of ECs for 1, 10, 20 and 30 minutes as well as for 1, 2, 4, 6 and 24 hours. […] As a control, the vWf release from thrombin stimulated ECs was also determined (FIG. 5)."}
{"substance": "Thrombin", "values": [{"measurement": "Increase in vWf release (%), BTP-dioxolane absent", "setting": "thrombin 5 U/mL, 4 hours, n=5", "result": "123.5 ± 11.3", "unit": "%"}, {"measurement": "vWf release from ECs (optimal effect)", "setting": "thrombin (5 units/mL), 10 minutes, P<0.001", "result": 368, "unit": "%"}, {"measurement": "vWf release from ECs", "setting": "thrombin (5 units/mL), 30 minutes", "result": 261, "unit": "%"}, {"measurement": "vWf release from ECs", "setting": "thrombin (5 units/mL), 1 hour", "result": 137, "unit": "%"}, {"measurement": "vWf release from ECs", "setting": "thrombin (5 units/mL), 24 hours", "result": 88, "unit": "%"}]}
